Measured values reported in paper PMC12373846, “Hemoglobin as a pseudoperoxidase and drug target for oxidative stress-related diseases” (Signal Transduction and Targeted Therapy, 2025).

What was measured:
A53T mice = test: Immunohistochemistry of SNpc, A53T mice; assay type: in vivo, mouse; conditions: for mean GABA intensity in GFAP-positive areas: Fig. 4k; for TH-positive neuron counts per hemisphere: Fig. 4l
Method: Stereotaxic injections were performed to deliver the AAV-CMV-A53T virus or PBS (control) into the right SNpc (AP, −3.2 mm; ML, −1.3 mm; DV, −4.0 mm from the bregma) of the mice. The injections were administered at a rate of 0.2 μl/min, with a total volume of 1 μl. The procedure was conducted under general anesthesia induced by 1% isoflurane.
The mice were deeply anesthetized with 2% isoflurane and positioned on the operating table. After the abdomen was opened and the heart was exposed, the […] were perfused with saline, followed by 4% paraformaldehyde (PFA) in 0.1 M PBS. The mice were decapitated, and the brains were excised from the skull. Excised brains were postfixed in 4% PFA overnight at 4 °C and dehydrated in 30% sucrose for 48 h. Coronal hippocampal sections were cut at 30 µm thickness with a cryostat and stored in storage solution. For the ALS experiments, lumbar spinal cords (L2–L5) were also carefully dissected and immediately immersed in 4% PFA for postfixation. The sections were fully washed in 0.1 M PBS and incubated for 1 h in blocking solution (0.3% Triton X-100, 2% donkey and goat serum in 0.1 M PBS). Next, a mixture of primary antibodies in the blocking solution was used for immunostaining on a shaker overnight at 4 °C. The sections were washed in PBS three times. After washing, the sections were incubated with the corresponding fluorescent secondary antibodies for 1 h at RT. DAPI staining was performed by adding a DAPI solution (1:2000) during the second washing step. After the washing step was complete, the sections were mounted on cover slides with mounting medium. A series of fluorescence images were obtained with an LSM900 (Zeiss, Germany) confocal microscope or Lattice SIM Elyra 7 (Zeiss, Germany). The 15–22 μm Z stack images in 1–2 μm steps were processed for image analysis, which was performed via the ImageJ (NIH, US) and ZEN digital imaging for light microscopy blue system (Zeiss, Germany) programs. The primary antibodies used were as follows: chicken anti-GFAP (1:500, Millipore, ab5541), rabbit anti-amyloid beta (1:500, Abcam, ab2539), mouse anti-NeuN (1:200, Millipore, ab377), rabbit anti-Hbβ (1:200, Abcam, ab214049), mouse anti-Hbβ (1:200, Santacruz, sc-21757), mouse anti-MAOB (1:200, Santacruz, sc-515354), mouse anti-8-OhdG (1:500, Santacruz, sc-393871), rabbit anti-TH (1:500, Pelfreez, p40101), and mouse anti-TH (1:200, Sigma, T2928). The following secondary antibodies from Jackson were diluted (1:500) in blocking solution: donkey-anti-chicken 405, donkey-anti-chicken 647, donkey-anti-rabbit 488, donkey-anti-rabbit 594, donkey-anti-rabbit 647, donkey-anti-guinea pig 488, donkey-anti-guinea pig 647, donkey-anti-mouse 594, and donkey-anti-mouse 647. Serial confocal sections immunolabeled with GFAP were compiled into a maximal projection to assess the GFAP signal within the hippocampus (Z-stacked images, 15–22 μm Z stack images in 1–2 μm steps of brain sections). Sholl analysis, performed via the ImageJ plugin, automatically generated concentric circles with 10-μm spacing from the nucleus (soma) to the farthest astrocytic process. This analysis quantified the intersections of GFAP-labeled processes within each circle, calculating the ramification index and ending radius, enabling the evaluation of astrocytic hypertrophy and morphological changes, as previously described.[78] In the focal GiD mouse model, NeuN-positive CA1 pyramidal neurons were quantified within a 50 × 50 μm^2 region via ImageJ to determine the number of CA1 pyramidal neurons.
For the SNpc, astrocytes and dopaminergic neurons were analyzed separately. The SNpc region was manually reconstructed using anatomical landmarks and TH or GFAP signals. GFAP-positive astrocyte surfaces were reconstructed with surface details set to 0.6 μm, the diameter of the largest sphere at 2.0 μm, a manual threshold value minimum of 800, and diffusion transparency set to 60%. […]

JNK1 = target: T1, JNK1 (Homo sapiens, UniProt P45983); test: KINOMEscan; assay type: binding; conditions: 10000 nM; read-out: Percent Control
T1 construct: purchased DiscoverX KINOMEscan scanEDGE; Eurofins Cerep SafetyScreen87
Outline: (§1)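 The kinase readout is displacement in a site-directed competition binding assay (scanEDGE panel format). A separate Delta SafetyScreen87 off-target panel provides the non-kinase results.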

[1] = target: T2, JAK3(JH1domain-catalytic) (Homo sapiens, UniProt P52333); test: KINOMEscan; assay type: binding; conditions: 10000 nM; read-out: Percent Control
T2 construct: JAK3(JH1domain-catalytic); purchased DiscoverX KINOMEscan scanEDGE; Eurofins Cerep SafetyScreen87
Outline: as §1

IKK-beta = target: T3, IKK-beta (Homo sapiens, UniProt O14920); test: KINOMEscan; assay type: binding; conditions: 10000 nM; read-out: Percent Control
T3 construct: purchased DiscoverX KINOMEscan scanEDGE; Eurofins Cerep SafetyScreen87
Outline: as §1

AURKB = target: T4, AURKB (Homo sapiens, UniProt Q96GD4); test: KINOMEscan; assay type: binding; conditions: 10000 nM; read-out: Percent Control
T4 construct: purchased DiscoverX KINOMEscan scanEDGE; Eurofins Cerep SafetyScreen87
Outline: as §1

AXL = target: T5, AXL (Homo sapiens, UniProt P30530); test: KINOMEscan; assay type: binding; conditions: 10000 nM; read-out: Percent Control
T5 construct: purchased DiscoverX KINOMEscan scanEDGE; Eurofins Cerep SafetyScreen87
Outline: as §1

TSSK1B = target: T6, TSSK1B (Homo sapiens, UniProt Q9BXA7); test: KINOMEscan; assay type: binding; conditions: 10000 nM; read-out: Percent Control
T6 construct: purchased DiscoverX KINOMEscan scanEDGE; Eurofins Cerep SafetyScreen87
Outline: as §1

VEGFR2 = target: T7, VEGFR2 (Homo sapiens, UniProt P35968); test: KINOMEscan; assay type: binding; conditions: 10000 nM; read-out: Percent Control
T7 construct: purchased DiscoverX KINOMEscan scanEDGE; Eurofins Cerep SafetyScreen87
Outline: as §1

[2] = target: T8, TYK2(JH1domain-catalytic) (Homo sapiens, UniProt P29597); test: KINOMEscan; assay type: binding; conditions: 10000 nM; read-out: Percent Control
T8 construct: TYK2(JH1domain-catalytic); purchased DiscoverX KINOMEscan scanEDGE; Eurofins Cerep SafetyScreen87
Outline: as §1

AURKA = target: T9, AURKA (Homo sapiens, UniProt O14965); test: KINOMEscan; assay type: binding; conditions: 10000 nM; read-out: Percent Control
T9 construct: purchased DiscoverX KINOMEscan scanEDGE; Eurofins Cerep SafetyScreen87
Outline: as §1

T2 sequence (P52333 811-1124 limits assumed): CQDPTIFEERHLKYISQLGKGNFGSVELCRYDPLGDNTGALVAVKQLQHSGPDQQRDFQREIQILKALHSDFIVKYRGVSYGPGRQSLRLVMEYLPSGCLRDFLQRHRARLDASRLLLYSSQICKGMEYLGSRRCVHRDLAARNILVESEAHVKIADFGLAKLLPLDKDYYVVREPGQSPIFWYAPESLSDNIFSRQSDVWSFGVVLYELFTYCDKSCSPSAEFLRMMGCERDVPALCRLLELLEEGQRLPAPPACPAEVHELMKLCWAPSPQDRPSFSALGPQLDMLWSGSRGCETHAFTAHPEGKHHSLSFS
T1 sequence (P45983 whole entry): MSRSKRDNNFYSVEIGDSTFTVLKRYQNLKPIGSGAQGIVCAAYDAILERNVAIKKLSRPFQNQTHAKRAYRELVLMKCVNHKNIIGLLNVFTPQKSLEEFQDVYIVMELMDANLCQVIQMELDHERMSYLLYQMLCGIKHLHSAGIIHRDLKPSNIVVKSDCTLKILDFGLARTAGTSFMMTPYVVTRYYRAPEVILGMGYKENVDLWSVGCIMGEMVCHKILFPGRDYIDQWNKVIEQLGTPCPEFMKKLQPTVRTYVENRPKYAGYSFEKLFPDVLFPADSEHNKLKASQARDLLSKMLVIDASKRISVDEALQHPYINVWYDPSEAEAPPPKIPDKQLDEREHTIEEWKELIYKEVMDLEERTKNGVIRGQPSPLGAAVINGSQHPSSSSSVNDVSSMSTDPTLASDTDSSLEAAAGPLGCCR
T3 sequence (O14920 whole entry): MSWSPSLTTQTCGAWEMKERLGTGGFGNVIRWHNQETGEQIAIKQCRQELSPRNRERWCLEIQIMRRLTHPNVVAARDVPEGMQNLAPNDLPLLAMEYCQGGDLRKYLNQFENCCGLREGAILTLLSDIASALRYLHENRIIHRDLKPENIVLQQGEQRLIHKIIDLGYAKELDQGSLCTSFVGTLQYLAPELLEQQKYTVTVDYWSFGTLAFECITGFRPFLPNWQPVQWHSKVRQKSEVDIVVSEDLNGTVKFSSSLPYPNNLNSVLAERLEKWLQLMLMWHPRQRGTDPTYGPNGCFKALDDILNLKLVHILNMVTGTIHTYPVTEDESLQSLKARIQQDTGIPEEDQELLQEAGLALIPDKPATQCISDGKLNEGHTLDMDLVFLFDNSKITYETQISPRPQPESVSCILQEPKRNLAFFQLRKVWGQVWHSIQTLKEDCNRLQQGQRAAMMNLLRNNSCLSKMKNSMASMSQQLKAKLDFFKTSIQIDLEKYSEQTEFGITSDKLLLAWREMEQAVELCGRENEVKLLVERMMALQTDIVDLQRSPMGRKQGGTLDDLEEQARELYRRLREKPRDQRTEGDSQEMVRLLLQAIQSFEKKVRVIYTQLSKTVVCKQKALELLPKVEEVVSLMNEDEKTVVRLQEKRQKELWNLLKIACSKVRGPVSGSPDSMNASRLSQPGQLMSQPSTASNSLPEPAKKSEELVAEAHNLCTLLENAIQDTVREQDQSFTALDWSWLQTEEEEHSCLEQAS
T5 sequence (P30530 26-894): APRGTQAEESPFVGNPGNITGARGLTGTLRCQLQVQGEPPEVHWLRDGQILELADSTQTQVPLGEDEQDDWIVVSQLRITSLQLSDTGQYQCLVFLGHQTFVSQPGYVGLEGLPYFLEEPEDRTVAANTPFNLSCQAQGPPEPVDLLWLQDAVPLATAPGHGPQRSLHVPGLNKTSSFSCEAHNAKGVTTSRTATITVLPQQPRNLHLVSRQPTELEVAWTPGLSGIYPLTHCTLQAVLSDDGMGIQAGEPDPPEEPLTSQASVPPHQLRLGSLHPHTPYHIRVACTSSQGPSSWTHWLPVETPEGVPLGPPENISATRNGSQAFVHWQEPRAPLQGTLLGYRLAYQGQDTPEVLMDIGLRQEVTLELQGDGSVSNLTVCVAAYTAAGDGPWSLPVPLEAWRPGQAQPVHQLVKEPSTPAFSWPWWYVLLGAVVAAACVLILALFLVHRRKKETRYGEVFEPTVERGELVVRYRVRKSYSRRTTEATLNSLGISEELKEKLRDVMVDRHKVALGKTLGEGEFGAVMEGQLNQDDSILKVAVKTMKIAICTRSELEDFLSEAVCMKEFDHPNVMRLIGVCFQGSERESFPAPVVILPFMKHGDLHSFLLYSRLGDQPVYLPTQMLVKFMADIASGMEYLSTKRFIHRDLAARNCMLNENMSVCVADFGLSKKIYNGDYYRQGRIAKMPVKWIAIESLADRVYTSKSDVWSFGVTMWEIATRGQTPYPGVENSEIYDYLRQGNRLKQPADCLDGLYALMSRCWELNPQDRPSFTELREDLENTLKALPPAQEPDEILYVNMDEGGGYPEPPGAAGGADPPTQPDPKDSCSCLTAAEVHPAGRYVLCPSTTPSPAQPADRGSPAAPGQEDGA
T8 sequence (P29597 876-1187 limits assumed): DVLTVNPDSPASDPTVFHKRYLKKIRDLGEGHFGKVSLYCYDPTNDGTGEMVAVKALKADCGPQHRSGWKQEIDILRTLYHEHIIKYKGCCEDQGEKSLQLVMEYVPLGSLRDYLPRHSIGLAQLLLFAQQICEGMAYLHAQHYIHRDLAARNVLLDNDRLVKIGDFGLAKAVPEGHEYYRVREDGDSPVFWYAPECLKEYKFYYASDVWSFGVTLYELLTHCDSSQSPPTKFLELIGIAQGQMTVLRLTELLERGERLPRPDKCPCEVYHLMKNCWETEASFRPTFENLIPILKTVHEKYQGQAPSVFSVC
T9 sequence (O14965 whole entry): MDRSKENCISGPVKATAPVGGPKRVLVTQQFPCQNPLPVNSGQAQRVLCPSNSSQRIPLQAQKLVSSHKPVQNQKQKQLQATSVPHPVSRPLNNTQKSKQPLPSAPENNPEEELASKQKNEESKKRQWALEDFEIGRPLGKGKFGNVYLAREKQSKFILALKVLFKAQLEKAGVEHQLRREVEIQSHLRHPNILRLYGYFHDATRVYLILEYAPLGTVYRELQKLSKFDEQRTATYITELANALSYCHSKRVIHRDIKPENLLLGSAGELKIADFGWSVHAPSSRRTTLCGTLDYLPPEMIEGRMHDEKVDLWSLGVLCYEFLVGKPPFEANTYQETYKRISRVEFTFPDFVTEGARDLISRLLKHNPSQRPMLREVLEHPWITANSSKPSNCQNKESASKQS
T4 sequence (Q96GD4 whole entry): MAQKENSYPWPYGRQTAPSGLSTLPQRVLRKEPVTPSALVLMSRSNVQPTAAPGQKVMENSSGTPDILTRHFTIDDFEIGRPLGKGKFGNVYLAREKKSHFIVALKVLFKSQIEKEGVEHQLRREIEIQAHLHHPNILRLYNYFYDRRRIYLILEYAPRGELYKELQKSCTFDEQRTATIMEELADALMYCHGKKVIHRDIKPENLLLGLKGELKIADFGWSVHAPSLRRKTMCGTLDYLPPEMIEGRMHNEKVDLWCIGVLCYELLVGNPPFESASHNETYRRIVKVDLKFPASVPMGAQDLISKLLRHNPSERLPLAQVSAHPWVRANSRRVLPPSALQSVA
T7 sequence (P35968 20-1356): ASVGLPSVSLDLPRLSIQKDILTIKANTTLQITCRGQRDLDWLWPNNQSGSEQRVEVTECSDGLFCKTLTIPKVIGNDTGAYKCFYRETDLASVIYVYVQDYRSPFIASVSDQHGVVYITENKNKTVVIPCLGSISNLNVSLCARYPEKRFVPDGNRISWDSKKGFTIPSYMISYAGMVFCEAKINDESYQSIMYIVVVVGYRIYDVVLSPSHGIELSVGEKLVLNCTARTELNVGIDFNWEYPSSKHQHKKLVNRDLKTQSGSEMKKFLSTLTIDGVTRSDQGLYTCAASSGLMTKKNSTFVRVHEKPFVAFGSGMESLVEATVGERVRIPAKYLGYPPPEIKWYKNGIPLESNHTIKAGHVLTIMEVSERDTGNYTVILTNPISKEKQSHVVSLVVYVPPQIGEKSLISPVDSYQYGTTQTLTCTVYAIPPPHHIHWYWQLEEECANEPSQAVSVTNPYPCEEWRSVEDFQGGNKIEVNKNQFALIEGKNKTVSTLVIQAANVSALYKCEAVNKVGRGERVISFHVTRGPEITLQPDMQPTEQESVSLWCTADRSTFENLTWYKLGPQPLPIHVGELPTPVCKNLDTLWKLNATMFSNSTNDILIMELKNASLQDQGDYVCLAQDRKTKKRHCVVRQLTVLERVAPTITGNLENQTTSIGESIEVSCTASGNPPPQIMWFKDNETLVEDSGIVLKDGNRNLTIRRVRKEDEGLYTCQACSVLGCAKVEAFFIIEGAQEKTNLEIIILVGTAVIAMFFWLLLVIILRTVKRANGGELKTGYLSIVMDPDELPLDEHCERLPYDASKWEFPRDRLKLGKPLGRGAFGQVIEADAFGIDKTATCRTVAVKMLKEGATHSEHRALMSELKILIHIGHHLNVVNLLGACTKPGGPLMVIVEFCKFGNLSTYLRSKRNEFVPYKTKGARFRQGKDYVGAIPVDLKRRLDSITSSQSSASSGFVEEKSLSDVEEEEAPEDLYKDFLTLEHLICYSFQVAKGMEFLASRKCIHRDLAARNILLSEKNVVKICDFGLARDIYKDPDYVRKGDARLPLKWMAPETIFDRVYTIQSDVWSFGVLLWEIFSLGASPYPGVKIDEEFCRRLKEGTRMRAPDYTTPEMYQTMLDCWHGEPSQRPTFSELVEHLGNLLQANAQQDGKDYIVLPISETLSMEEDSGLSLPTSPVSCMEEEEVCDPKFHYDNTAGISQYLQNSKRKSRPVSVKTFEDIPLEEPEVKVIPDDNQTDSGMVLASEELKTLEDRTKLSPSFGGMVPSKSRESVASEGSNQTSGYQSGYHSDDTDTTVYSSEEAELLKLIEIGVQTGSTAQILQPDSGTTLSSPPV

CNc1ccc(NCCc2ccccc2OC)cc1.Cl [KDS12025, N^1-(2-methoxyphenethyl)-N^4-methylbenzene-1,4-diamine hydrochloride salt]
mean intensity of Hbβ in GFAP-positive areas (A53T mice; A53T contra+KDS12025, Fig. 5p): 46.92±4.141 | mean intensity of Hbβ in TH-positive areas (A53T mice; A53T contra+KDS12025, Fig. 5q): 61.58±2.401 | mean intensity of GFAP in GFAP-positive area (A53T mice; A53T contra+KDS12025, Fig. S12c): 82.69±4.999 | GFAP-positive area in the SNpc (A53T mice; A53T contra+KDS, Fig. 4j): 25.28±2.892 | mean GABA intensity in GFAP-positive areas (A53T mice; A53T contra+KDS): 10.18±1.460 | TH-positive neuron counts per hemisphere (A53T mice; A53T contra+KDS): 23.20±2.685 | mean intensity of Hbβ in GFAP-positive areas (A53T mice; A53T ipsi+KDS12025, Fig. 5p): 34.98±2.564 | mean intensity of Hbβ in TH-positive areas (A53T mice; A53T ipsi+KDS12025, Fig. 5q): 55.65±3.378 | mean intensity of GFAP in GFAP-positive area (A53T mice; A53T ipsi+KDS12025, Fig. S12c): 106.7±3.202 | GFAP-positive area in the SNpc (A53T mice; A53T ipsi+KDS, Fig. 4j): 34.18±3.214 | mean GABA intensity in GFAP-positive areas (A53T mice; A53T ipsi+KDS): 5.531±0.9318 | TH-positive neuron counts per hemisphere (A53T mice; A53T ipsi+KDS): 20.96±2.68 | GFAP-positive area in the SNpc (A53T mice; A53T+shHbβ::CaMKII+KDS12025, Fig. 6r): 37.16±3.6 | number of TH-positive neurons per hemisphere (A53T mice; A53T+shHbβ::CaMKII+KDS12025, Fig. 6s): 18.5±1.3 | GFAP-positive area in the SNpc (A53T mice; A53T+shHbβ::GFAP+KDS12025, Fig. 6r): 42.7±5.05 | number of TH-positive neurons per hemisphere (A53T mice; A53T+shHbβ::GFAP+KDS12025, Fig. 6s): 16.75±2.75 | remaining binding at 10 µM (JNK1): 75% | remaining binding at 10 µM [1]: 76% | remaining binding at 10 µM (IKK-beta): 100% | remaining binding at 10 µM (AURKB): 78% | remaining binding at 10 µM (AXL): 95% | remaining binding at 10 µM (TSSK1B): 45% | remaining binding at 10 µM (VEGFR2): 100% | remaining binding at 10 µM [2]: 93% | remaining binding at 10 µM (AURKA): 86%
